Data from the supplement of paper PMC5579334.

Columns and labels:
STS26T [1] = experiment: relative IC50 (inflection point of fitted dose-response curve, CellTox-Green cytotoxicity, 72 h; top asymptote may be below 50%); higher = less potent
Summary of the method: (§1)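 MPNST cell lines and primary human Schwann cells were grown for 72 h at 37 °C in 384-well plates containing five 10-fold compound dilutions. CellTox-Green, added before seeding at a final 1:1000 dilution, gave fluorescence from DNA released by disrupted cells, and signals were scaled to vehicle and positive-control wells. Curves were fitted with a four-parameter logistic model. Drug sensitivity score and relative IC50 come from these fits, with IC50 censored at the top concentration.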

ST8814 [2] = experiment: as above
Summary of the method: as §1

HS-PSS [3] = experiment: as above
Summary of the method: as §1

HSC2 [4] = experiment: as above
Summary of the method: as §1

HSC1 [5] = experiment: as above
Summary of the method: as §1

YST-1 = experiment: relative IC50 (inflection point of fitted dose-response curve, CellTiter-Glo viability, 72 h; top asymptote may be below 50% inhibition); higher = less potent
Summary of the method: (§2)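 Viability of MPNST cell lines and primary human Schwann cells was read as CellTiter-Glo ATP luminescence after 72 h at 37 °C, 5% CO2, in 384-well plates seeded with 750–1000 cells per well. Each compound had been preprinted at five concentrations in 10-fold steps. Signals were scaled between vehicle and positive-control wells, duplicates averaged where present, and fitted with four-parameter logistic curves. Drug sensitivity score and relative IC50 (censored at the top concentration) come from those fits, and percent inhibition is taken at the top concentration.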

STS26T [6] = experiment: as above
Summary of the method: as §2

S1507-2 [7] = experiment: as above
Summary of the method: as §2

HS-Sch-2 = experiment: as above
Summary of the method: as §2

ST8814 [8] = experiment: as above
Summary of the method: as §2

HS-PSS [9] = experiment: as above
Summary of the method: as §2

S462 = experiment: as above
Summary of the method: as §2

HSC2 [10] = experiment: as above
Summary of the method: as §2

HSC1 [11] = experiment: as above
Summary of the method: as §2

S1507-2 [12] = experiment: relative IC50 (inflection point of fitted dose-response curve, CellTox-Green cytotoxicity, 72 h; top asymptote may be below 50%); higher = less potent
Summary of the method: as §1

Structure (SMILES): CC/C(=C(\c1ccc(O)cc1)c1ccc(OCCN(C)C)cc1)c1ccccc1 [4-hydroxytamoxifen]
- relative IC50 (STS26T [1]): 3.56 µM
- relative IC50 (ST8814 [2]): 3.31 µM
- relative IC50 (HS-PSS [3]): 3.41 µM
- relative IC50 (HSC2 [4]): 2.18 µM
- relative IC50 (HSC1 [5]): 3 µM
- relative IC50 (YST-1): 1.39 µM
- relative IC50 (STS26T [6]): 2.54 µM
- relative IC50 (S1507-2 [7]): 1.47 µM
- relative IC50 (HS-Sch-2): 2.06 µM
- relative IC50 (ST8814 [8]): 2.39 µM
- relative IC50 (HS-PSS [9]): 2.32 µM
- relative IC50 (S462): 1.81 µM
- relative IC50 (HSC2 [10]): 2.49 µM
- relative IC50 (HSC1 [11]): 2.01 µM

Structure (SMILES): COc1cc(Nc2ncc3c(n2)-c2ccc(Cl)cc2C(c2c(F)cccc2OC)=NC3)ccc1C(=O)O [Alisertib]
- relative IC50 (STS26T [1]): 0.0404 µM
- relative IC50 (ST8814 [2]): 0.265 µM
- relative IC50 (HS-PSS [3]): > 10 µM
- relative IC50 (HSC2 [4]): > 10 µM
- relative IC50 (HSC1 [5]): > 10 µM
- relative IC50 (YST-1): 0.0311 µM
- relative IC50 (STS26T [6]): 0.0896 µM
- relative IC50 (S1507-2 [7]): 0.124 µM
- relative IC50 (HS-Sch-2): 0.244 µM
- relative IC50 (ST8814 [8]): 0.288 µM
- relative IC50 (HS-PSS [9]): 1.56 µM
- relative IC50 (S462): 0.0248 µM
- relative IC50 (HSC2 [10]): 0.0265 µM
- relative IC50 (HSC1 [11]): 0.0534 µM

Structure (SMILES): CN(C)c1nc(N(C)C)nc(N(C)C)n1 [Altretamine]
- relative IC50 (STS26T [1]): > 10 µM
- relative IC50 (ST8814 [2]): > 10 µM
- relative IC50 (HS-PSS [3]): > 10 µM
- relative IC50 (HSC2 [4]): > 10 µM
- relative IC50 (HSC1 [5]): > 10 µM
- relative IC50 (YST-1): > 10 µM
- relative IC50 (STS26T [6]): > 10 µM
- relative IC50 (S1507-2 [7]): > 10 µM
- relative IC50 (HS-Sch-2): > 10 µM
- relative IC50 (ST8814 [8]): > 10 µM
- relative IC50 (HS-PSS [9]): > 10 µM
- relative IC50 (S462): > 10 µM
- relative IC50 (HSC2 [10]): > 10 µM
- relative IC50 (HSC1 [11]): > 10 µM

Structure (SMILES): CN1CC[C@H](c2c(O)cc(O)c3c(=O)cc(-c4ccccc4Cl)oc23)[C@H](O)C1 [Alvocidib]
- relative IC50 (STS26T [1]): 0.614 µM
- relative IC50 (ST8814 [2]): 0.931 µM
- relative IC50 (HS-PSS [3]): 0.194 µM
- relative IC50 (HSC2 [4]): 0.304 µM
- relative IC50 (HSC1 [5]): 0.484 µM
- relative IC50 (YST-1): 0.185 µM
- relative IC50 (STS26T [6]): 0.185 µM
- relative IC50 (S1507-2 [7]): 0.299 µM
- relative IC50 (HS-Sch-2): 0.195 µM
- relative IC50 (ST8814 [8]): 0.173 µM
- relative IC50 (HS-PSS [9]): 0.12 µM
- relative IC50 (S462): 0.17 µM
- relative IC50 (HSC2 [10]): 0.243 µM
- relative IC50 (HSC1 [11]): 0.219 µM

Structure (SMILES): CC(C)c1c(C(=O)Nc2ccccc2)c(-c2ccccc2)c(-c2ccc(F)cc2)n1CC[C@@H](O)C[C@@H](O)CC(=O)O [Atorvastatin]
- relative IC50 (STS26T [1]): 3.51 µM
- relative IC50 (ST8814 [2]): 3.27 µM
- relative IC50 (HS-PSS [3]): > 10 µM
- relative IC50 (HSC2 [4]): 0.234 µM
- relative IC50 (HSC1 [5]): 0.368 µM
- relative IC50 (YST-1): 2.31 µM
- relative IC50 (STS26T [6]): 2.09 µM
- relative IC50 (S1507-2 [7]): 2.5 µM
- relative IC50 (HS-Sch-2): 2.21 µM
- relative IC50 (ST8814 [8]): 2.45 µM
- relative IC50 (HS-PSS [9]): 1.68 µM
- relative IC50 (S462): 1.28 µM
- relative IC50 (HSC2 [10]): 0.197 µM
- relative IC50 (HSC1 [11]): 0.319 µM

Structure (SMILES): O=P1(N(CCCl)CCCl)NCCCO1 (stereo not given) [Cyclophosphamide]
- relative IC50 (STS26T [1]): > 40 µM
- relative IC50 (ST8814 [2]): > 40 µM
- relative IC50 (HS-PSS [3]): > 40 µM
- relative IC50 (HSC2 [4]): > 40 µM
- relative IC50 (HSC1 [5]): > 40 µM
- relative IC50 (YST-1): > 40 µM
- relative IC50 (STS26T [6]): > 40 µM
- relative IC50 (S1507-2 [7]): > 40 µM
- relative IC50 (HS-Sch-2): > 40 µM
- relative IC50 (ST8814 [8]): > 40 µM
- relative IC50 (HS-PSS [9]): > 40 µM
- relative IC50 (S462): > 40 µM
- relative IC50 (HSC2 [10]): > 40 µM
- relative IC50 (HSC1 [11]): > 40 µM

Structure (SMILES): Cc1c2oc3c(C)ccc(C(=O)N[C@@H]4C(=O)N[C@H](C(C)C)C(=O)N5CCC[C@H]5C(=O)N(C)CC(=O)N(C)[C@@H](C(C)C)C(=O)O[C@@H]4C)c3nc-2c(C(=O)N[C@@H]2C(=O)N[C@H](C(C)C)C(=O)N3CCC[C@H]3C(=O)N(C)CC(=O)N(C)[C@@H](C(C)C)C(=O)O[C@@H]2C)c(N)c1=O [Dactinomycin]
- relative IC50 (STS26T [1]): 0.00307 µM
- relative IC50 (ST8814 [2]): 0.0491 µM
- relative IC50 (HS-PSS [3]): 0.012 µM
- relative IC50 (HSC2 [4]): 0.00846 µM
- relative IC50 (HSC1 [5]): 0.0124 µM
- relative IC50 (YST-1): 0.00088 µM
- relative IC50 (STS26T [6]): 0.00208 µM
- relative IC50 (S1507-2 [7]): 0.00595 µM
- relative IC50 (HS-Sch-2): 0.00195 µM
- relative IC50 (ST8814 [8]): 0.00346 µM
- relative IC50 (HS-PSS [9]): 0.00505 µM
- relative IC50 (S462): 0.00186 µM
- relative IC50 (HSC2 [10]): 0.000779 µM
- relative IC50 (HSC1 [11]): 0.000906 µM

Structure (SMILES): CO[C@@H](C(=O)N1Cc2[nH]nc(NC(=O)c3ccc(N4CCN(C)CC4)cc3)c2C1)c1ccccc1 [Danusertib]
- relative IC50 (STS26T [1]): 0.744 µM
- relative IC50 (ST8814 [2]): 1.17 µM
- relative IC50 (HS-PSS [3]): 2.63 µM
- relative IC50 (HSC2 [4]): 2.39 µM
- relative IC50 (HSC1 [5]): 2.69 µM
- relative IC50 (YST-1): 0.0578 µM
- relative IC50 (STS26T [6]): 1.23 µM
- relative IC50 (S1507-2 [7]): 0.641 µM
- relative IC50 (HS-Sch-2): 0.529 µM
- relative IC50 (ST8814 [8]): 1.2 µM
- relative IC50 (HS-PSS [9]): 1.27 µM
- relative IC50 (S462): 0.389 µM
- relative IC50 (HSC2 [10]): 0.968 µM
- relative IC50 (HSC1 [11]): 0.759 µM

Structure (SMILES): CCc1cnn2c(NCc3ccc[n+]([O-])c3)cc(N3CCCC[C@H]3CCO)nc12 [Dinaciclib]
- relative IC50 (STS26T [1]): 0.00871 µM
- relative IC50 (ST8814 [2]): 0.0364 µM
- relative IC50 (HS-PSS [3]): 0.00772 µM
- relative IC50 (HSC2 [4]): 0.0439 µM
- relative IC50 (HSC1 [5]): 0.0842 µM
- relative IC50 (YST-1): 0.00748 µM
- relative IC50 (STS26T [6]): 0.0127 µM
- relative IC50 (S1507-2 [7]): 0.0259 µM
- relative IC50 (HS-Sch-2): 0.00855 µM
- relative IC50 (ST8814 [8]): 0.0295 µM
- relative IC50 (HS-PSS [9]): 0.0101 µM
- relative IC50 (S462): 0.0065 µM
- relative IC50 (HSC2 [10]): 0.0136 µM
- relative IC50 (HSC1 [11]): 0.0216 µM

Structure (SMILES): Cn1cc(C2=C(c3cn(C4CCN(Cc5ccccn5)CC4)c4ccccc34)C(=O)NC2=O)c2ccccc21 [Enzastaurin]
- relative IC50 (S1507-2 [12]): > 10 µM
- relative IC50 (ST8814 [2]): > 10 µM
- relative IC50 (HS-PSS [3]): > 10 µM
- relative IC50 (HSC2 [4]): > 10 µM
- relative IC50 (HSC1 [5]): > 10 µM
- relative IC50 (YST-1): > 10 µM
- relative IC50 (HSC2 [10]): 2.91 µM

Structure (SMILES): COc1cc([C@@H]2c3cc4c(cc3[C@@H](O[C@@H]3O[C@@H]5CO[C@@H](C)O[C@H]5[C@H](O)[C@H]3O)[C@H]3COC(=O)[C@H]23)OCO4)cc(OC)c1O [Etoposide]
- relative IC50 (STS26T [1]): 0.896 µM
- relative IC50 (ST8814 [2]): 3.23 µM
- relative IC50 (HSC2 [4]): 1.42 µM
- relative IC50 (HSC1 [5]): 3.13 µM
- relative IC50 (YST-1): 0.175 µM
- relative IC50 (STS26T [6]): 1.21 µM
- relative IC50 (S1507-2 [7]): 1.49 µM
- relative IC50 (HS-Sch-2): 1.12 µM
- relative IC50 (ST8814 [8]): 1.93 µM
- relative IC50 (HS-PSS [9]): 1.3 µM
- relative IC50 (S462): 0.833 µM
- relative IC50 (HSC2 [10]): 0.241 µM
- relative IC50 (HSC1 [11]): 0.658 µM

Structure (SMILES): CCOC(=O)CCNc1cc(N2CCc3ccccc3CC2)nc(-c2ccccn2)n1 [GSK-J4]
- relative IC50 (STS26T [1]): 14.8 µM
- relative IC50 (ST8814 [2]): 15.5 µM
- relative IC50 (HS-PSS [3]): 27.2 µM
- relative IC50 (HSC2 [4]): 23.7 µM
- relative IC50 (HSC1 [5]): 23.7 µM
- relative IC50 (YST-1): 4.29 µM
- relative IC50 (STS26T [6]): 5.27 µM
- relative IC50 (S1507-2 [7]): 6.51 µM
- relative IC50 (HS-Sch-2): 4.52 µM
- relative IC50 (ST8814 [8]): 5.9 µM
- relative IC50 (HS-PSS [9]): 6.01 µM
- relative IC50 (S462): 3.74 µM
- relative IC50 (HSC2 [10]): 4.57 µM
- relative IC50 (HSC1 [11]): 4.68 µM
